These results are taken from patent US11041000B2, “Peptide inhibitors of interleukin-23 receptor and their use to treat inflammatory diseases” (priority 2019, dated 2021).

The nature of data set [1]: Stability in cynomolgus monkey fecal homogenate. Format: in vitro ADME. The note with it: 20% fecal homogenate (supernatant), pH 6.8, 20% cynomolgus monkey fecal homogenate, anaerobic, 37° C., read-out: t½: Monkey Feces anaerobic (converted). The protocol:
(§1) Centrifuged the homogenate at 2800×g for 15 min. The supernatant is taken out and used for incubations. […] The final test compound concentration was 20 μM.

For data set [2], the target named is IL-23R-expressing DB cells (Homo sapiens, UniProt Q5VWK5). Kind of data set: DB cells IL23R pSTAT3 cell assay (pStat3HTRF). The note with it: DB cells stimulated with IL-23 0.5 nM, 30 minutes, phospho-STAT3 in cell lysates; read-out: pStat3 HTRF. Format: cell-based. The text has this:
Human ELISA indicates the IL23-IL23R competitive binding assay described below, Rat ELISA indicates the rat IL-23R competitive binding ELISA assay described below, and pStat3HTRF indicates the DB cells IL-23R pSTAT3 cell assay described below. The peptides depicted in Table E1 are cyclized via a disulfide bridge formed between two Pen residues in these peptides. The peptides depicted in Table E2 are cyclized via a thioether bond between the indicated amino acid residues. Table E2 provides an illustrative structure depicting thioether cyclization, which is indicated in the table by the term “cyclo,” with the cyclic region bracketed immediately following the term “cyclo.” For certain peptides, the residue Abu is present where indicated, whereas in other embodiments, e.g., those related to the non-cyclized form, the Abu may be referred to as a hSer(Cl) or homoSer residue. The petpides depicted in Table E3 are cyclized via a disulfide bridge formed between two Pen residues or a thioether bond between Abu and Cys.
IL-23 plays a central role in supporting and maintaining Th17 differentiation in vivo. This process is thought to be mediated primarily through the Signal Transducer and Activator of Transcription 3 (STAT3), with phosphorylation of STAT3 (to yield pSTAT3) leading to upregulation of RORC and pro-inflammatory IL-17. This cell assay examines the levels of pSTAT3 in IL-23R-expressing DB cells when stimulated with IL-23 in the presence of test compounds. Serial dilutions of test peptides and IL-23 (Humanzyme #HZ-1261) at a final concentration of 0.5 nM, were added to each well in a 96 well tissue culture plate (Corning #CLS3894). DB cells (ATCC #CRL-2289), cultured in RPMI-1640 medium (Thermo Scientific #11875093) supplemented with 10% FBS, were added at 5×10E5 cells/well and incubated for 30 minutes at 37° C. in a 5% CO2 humidified incubator. Changes in phospho-STAT3 levels in the cell lysates were detected using the Cisbio HTRF pSTAT3 (Tyr705) Cellular Assay Kit (Cisbio #62AT3PEH), according to manufacturer's Two Plate Assay protocol.
(In general: In TR-FRET formats the signal depends on donor and acceptor labels being close together.)

The nature of data set [3]: Stability in human fecal homogenate. Format: in vitro ADME. As to conditions: 20% fecal homogenate (supernatant), pH 6.8, 20% human fecal homogenate, anaerobic, 37° C., read-out: t½: Human Feces anaerobic (converted). The protocol: as §1
The nature of data set [4]: Stability in rat plasma. The note with it: both sexes, SD rat plasma, EDTA, 37° C., read-out: t½: Rat Plasma EDTA (converted). In kind it is in vitro ADME.
A short description of data set [5]: Stability in simulated intestinal fluid (SIF). In kind it is in vitro ADME. As to conditions: simulated intestinal fluid with pancreatin, pH 6.8, 37° C., matrix is 100 fold dilution of standard SIF concentration; for SIF t½: 20 μM; for half-life at 20 μM: read-out: SIF t½ (converted).
Experimental: SIF was prepared by adding 6.8 g of monobasic potassium phosphate and 10.0 g of pancreatin to 1.0 L of water. After dissolution, the pH was adjusted to 6.8 using NaOH. DMSO stocks (2 mM) were first prepared for the test compounds. Aliquots of the DMSO solutions were dosed into 6 individual tubes, each containing 0.5 mL of SIF, which is pre-warmed to 37° C. The final test compound concentration was 20 μM. The vials were kept in a benchtop Thermomixer® for the duration of the experiment. At each timepoint (0, 5, 10, 20, 40, 60, or 360 minutes or 24 hours), 1.0 mL of acetonitrile containing 1% formic acid was added to one vial to terminate the reaction. Samples were stored at 4° C. until the end of the experiment. After the final timepoint is sampled, the tubes were mixed and then centrifuged at 3,000 rpm for 10 minutes. Aliquots of the supernatant were removed, diluted 1:1 into distilled water containing internal standard, and analyzed by LCMS/MS. Percent remaining at each timepoint was calculated based on the peak area response ratio of test to compound to internal standard. Time 0 was set to 100%, and all later timepoints were calculated relative to time 0. Half-lives were calculated by fitting to a first-order exponential decay equation using Graphpad.

pIC50: −log10 of the molar value. Bridge positions count the residues as written; N and C are the ends. Square brackets hold non-standard residues; d marks the D form. Peptide text beside a SMILES is read from it. Trp(7-Me) = Cc1cccc2c(C[C@H](N)C(=O)O)c[nH]c12; Trp(2-Me) = Cc1[nH]c2ccccc2c1C[C@H](N)C(=O)O; 2Nal = N[C@@H](Cc1ccc2ccccc2c1)C(=O)O; AEF = NCCOc1ccc(C[C@H](N)C(=O)O)cc1; Cit = NC(=O)NCCC[C@H](N)C(=O)O; αMeL = CC(C)C[C@](C)(N)C(=O)O; Pen = CC(C)(S)[C@H](N)C(=O)O; αMeK = C[C@](N)(CCCCN)C(=O)O; βAla = NCCC(=O)O

Sequence of IL-23R-expressing DB cells (Q5VWK5 24-629 limits assumed): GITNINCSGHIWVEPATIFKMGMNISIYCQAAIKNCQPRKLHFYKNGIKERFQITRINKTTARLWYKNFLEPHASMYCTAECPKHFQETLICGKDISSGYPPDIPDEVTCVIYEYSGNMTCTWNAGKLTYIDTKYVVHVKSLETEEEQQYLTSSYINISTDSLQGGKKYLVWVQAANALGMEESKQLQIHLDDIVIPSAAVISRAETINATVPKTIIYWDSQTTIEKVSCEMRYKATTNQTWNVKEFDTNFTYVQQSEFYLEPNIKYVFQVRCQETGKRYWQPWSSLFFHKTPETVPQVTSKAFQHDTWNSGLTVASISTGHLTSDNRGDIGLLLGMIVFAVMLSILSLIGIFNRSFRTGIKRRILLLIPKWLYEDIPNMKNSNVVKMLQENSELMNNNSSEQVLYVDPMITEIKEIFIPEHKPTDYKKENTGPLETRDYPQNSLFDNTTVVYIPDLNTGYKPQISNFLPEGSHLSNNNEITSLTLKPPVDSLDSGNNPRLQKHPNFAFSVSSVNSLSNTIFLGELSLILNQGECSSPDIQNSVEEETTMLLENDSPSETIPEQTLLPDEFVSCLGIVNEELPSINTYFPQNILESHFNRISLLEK

As to `CC(=O)NCCCC[C@H](NC(=O)[C@](C)(CCCCN)NC(=O)[C@H](Cc1ccc2ccccc2c1)NC(=O)[C@H](Cc1ccc(OCCN)cc1)NC(=O)[C@H]1NC(=O)[C@H](CCC(N)=O)NC(=O)[C@H](Cc2c[nH]c3c(C)cccc23)NC(=O)[C@H]([C@@H](C)O)NC(=O)[C@H](CC(N)=O)NC(=O)[C@@H](NC(C)=O)C(C)(C)SSC1(C)C)C(=O)N[C@@H](CC(N)=O)C(=O)NCCC(N)=O` [compound 202], the half-life at 20 μM in data set [1] is 10 h. Further, in data set [2], the pIC50 was 8.96.

Turning to `CC(=O)NCCCC[C@H](NC(=O)[C@](C)(CC(C)C)NC(=O)[C@H](Cc1ccc2ccccc2c1)NC(=O)[C@H](Cc1ccc(OCCN)cc1)NC(=O)[C@H]1NC(=O)[C@H](CCC(N)=O)NC(=O)[C@H](Cc2c[nH]c3c(C)cccc23)NC(=O)[C@H]([C@@H](C)O)NC(=O)[C@H](CC(N)=O)NC(=O)[C@@H](NC(C)=O)C(C)(C)SSC1(C)C)C(=O)N1CCC[C@H]1C(=O)NCCC(N)=O` [compound 211], the values for the half-life at 20 μM in data set [1] (cynomolgus monkey) and in data set [3] were above 24 h and 10 h, respectively. Further, the pIC50 in data set [2] was 6.75.

Consider `CC(=O)NCCCC[C@H](NC(=O)[C@](C)(CC(C)C)NC(=O)[C@H](Cc1ccc2ccccc2c1)NC(=O)[C@H](Cc1ccc(OCCN)cc1)NC(=O)[C@H]1NC(=O)[C@H](CCC(N)=O)NC(=O)[C@H](Cc2c[nH]c3c(C)cccc23)NC(=O)[C@H]([C@@H](C)O)NC(=O)[C@H](CC(N)=O)NC(=O)[C@@H](NC(C)=O)C(C)(C)SSC1(C)C)C(=O)N[C@@H](C(=O)NCCC(N)=O)[C@H](C)O` [compound 218], for which the half-life at 20 μM in data set [4] is 1 h; in data set [1] (cynomolgus monkey) it was above 24 h; in data set [3], above 24 h. In data set [2], the pIC50 is 7.96.

On to `CC(=O)NCCCC[C@H](NC(=O)[C@](C)(CC(C)C)NC(=O)[C@H](Cc1ccc2ccccc2c1)NC(=O)[C@H](Cc1ccc(OCCN)cc1)NC(=O)[C@H]1NC(=O)[C@H](CCCNC(N)=O)NC(=O)[C@H](Cc2c[nH]c3c(C)cccc23)NC(=O)[C@H]([C@@H](C)O)NC(=O)[C@H](CC(N)=O)NC(=O)[C@@H](NC(C)=O)C(C)(C)SSC1(C)C)C(=O)N[C@@H](CC(N)=O)C(=O)NCCC(N)=O` [compound 227] (Ac-[Pen]NT[Trp(7-Me)][Cit][Pen][AEF][2Nal][αMeL]K(Ac)N[βAla]-NH2; disulfide 1-6), for which the half-life at 20 μM in data set [1] (cynomolgus monkey) and in data set [3] was above 24 h each time. In addition, the pIC50 in data set [2] is 9.15.

As to `CC(=O)NCCCC[C@H](NC(=O)[C@](C)(CCCCN)NC(=O)[C@H](Cc1ccc2ccccc2c1)NC(=O)[C@H](Cc1ccc(OCCN)cc1)NC(=O)[C@H]1NC(=O)[C@H](CCC(N)=O)NC(=O)[C@H](Cc2c[nH]c3c(C)cccc23)NC(=O)[C@H]([C@@H](C)O)NC(=O)[C@H](CC(N)=O)NC(=O)[C@@H](NC(C)=O)C(C)(C)SSC1(C)C)C(=O)N[C@@H](CC(N)=O)C(=O)NCCC(N)=O` [compound 267], the half-life at 20 μM in data set [4] and in data set [3] was above 24 h throughout. For the same compound, the pIC50 in data set [2] is 9.30.

Turning to `CC(=O)NCCCC[C@H](NC(=O)C1(NC(=O)[C@H](Cc2ccc3ccccc3c2)NC(=O)[C@H](Cc2ccc(OCCN)cc2)NC(=O)[C@H]2NC(=O)[C@H](CCC(N)=O)NC(=O)[C@H](Cc3c[nH]c4c(C)cccc34)NC(=O)[C@H]([C@@H](C)O)NC(=O)[C@H](CC(N)=O)NC(=O)[C@@H](NC(C)=O)C(C)(C)SSC2(C)C)CCNCC1)C(=O)N[C@@H](CC(N)=O)C(=O)NCCC(N)=O` [compound 275], the half-life at 20 μM in data set [4] is above 24 h; in data set [1] (cynomolgus monkey), 8 h; in data set [3], above 24 h. Besides, the pIC50 in data set [2] is 8.66.

Turning to `CC(=O)NCCCC[C@@H]1NC(=O)[C@H](Cc2c[nH]c3c(C)cccc23)NC(=O)[C@H]([C@@H](C)O)NC(=O)[C@H](CC(N)=O)NC(=O)[C@@H](NC(C)=O)C(C)(C)SSC(C)(C)[C@@H](C(=O)N[C@@H](Cc2ccc(OCCN)cc2)C(=O)N[C@@H](Cc2c(C)[nH]c3ccccc23)C(=O)N[C@@](C)(CCCCN)C(=O)N[C@@H](CCCCNC(C)=O)C(=O)N[C@@H](CC(N)=O)C(=O)N[C@H](CCCCN)C(N)=O)NC1=O` [compound 353] (Ac-[Pen]NT[Trp(7-Me)]K(Ac)[Pen][AEF][Trp(2-Me)][αMeK]K(Ac)N[dK]-NH2; disulfide 1-6), the half-life at 20 μM in data set [4], in data set [1] and in data set [3] was above 24 h in each case. Besides, the “SIF t½” value in data set [5] is 24 h.

Regarding `CC(=O)NCCCC[C@@H]1NC(=O)[C@H](Cc2c[nH]c3c(C)cccc23)NC(=O)[C@H]([C@@H](C)O)NC(=O)[C@H](CC(N)=O)NC(=O)[C@@H](NC(C)=O)C(C)(C)SSC(C)(C)[C@@H](C(=O)N[C@@H](Cc2ccc(OCCN)cc2)C(=O)N[C@@H](Cc2ccc3ccccc3c2)C(=O)N[C@@](C)(CC(C)C)C(=O)N[C@@H](CCCCNC(C)=O)C(=O)N[C@@H](CC(N)=O)C(=O)N[C@H](CC(N)=O)C(N)=O)NC1=O` [compound 354], the half-life at 20 μM in data set [4] was 7 h; in data set [1], above 24 h; in data set [5], 11 h; in data set [3], above 24 h.

Turning to `CC(=O)NCCCC[C@@H]1NC(=O)[C@H](Cc2c[nH]c3c(C)cccc23)NC(=O)[C@H]([C@@H](C)O)NC(=O)[C@H](CC(N)=O)NC(=O)[C@@H](NC(C)=O)C(C)(C)SSC(C)(C)[C@@H](C(=O)N[C@@H](Cc2ccc(OCCN)cc2)C(=O)N[C@@H](Cc2ccc3ccccc3c2)C(=O)N[C@@](C)(CCCCN)C(=O)N[C@@H](CCCCNC(=O)[C@H](C)N)C(=O)N[C@@H](CC(N)=O)C(=O)N[C@H](CC(C)C)C(N)=O)NC1=O` [compound 355], the half-life at 20 μM in data set [4] is above 24 h; in data set [1] it was above 24 h; in data set [5] it was 8 h; in data set [3], 12 h.

As to `CC(=O)NCCCC[C@@H]1NC(=O)[C@H](Cc2c[nH]c3c(C)cccc23)NC(=O)[C@H]([C@@H](C)O)NC(=O)[C@H](CC(N)=O)NC(=O)[C@@H](NC(C)=O)C(C)(C)SSC(C)(C)[C@@H](C(=O)N[C@@H](Cc2ccc(OCCN)cc2)C(=O)N[C@@H](Cc2ccc3ccccc3c2)C(=O)N[C@@](C)(CCCCN)C(=O)N[C@@H](CCCCNC(=O)CC(C)C)C(=O)N[C@@H](CC(N)=O)C(=O)N[C@H](CC(C)C)C(N)=O)NC1=O` [compound 356], the half-life at 20 μM in data set [4] was above 24 h; in data set [1], above 24 h; in data set [5], 10 h; in data set [3], above 24 h.

Take `CC(=O)NCCCC[C@@H]1NC(=O)[C@H](Cc2c[nH]c3c(C)cccc23)NC(=O)[C@H]([C@@H](C)O)NC(=O)[C@H](CC(N)=O)NC(=O)[C@@H](NC(C)=O)C(C)(C)SSC(C)(C)[C@@H](C(=O)N[C@@H](Cc2ccc(OCCN)cc2)C(=O)N[C@@H](Cc2ccc3ccccc3c2)C(=O)N[C@@](C)(CCCCN)C(=O)N[C@@H](CCCCNC(=O)CC(F)(F)F)C(=O)N[C@@H](CC(N)=O)C(=O)N[C@H](CC(C)C)C(N)=O)NC1=O` [compound 360]: the half-life at 20 μM in data set [4], in data set [1] and in data set [3] was above 24 h throughout. Besides, in data set [5], the “SIF t½” value was 24 h.

Turning to `CCCCC(=O)NCCCC[C@H](NC(=O)[C@](C)(CCCCN)NC(=O)[C@H](Cc1ccc2ccccc2c1)NC(=O)[C@H](Cc1ccc(OCCN)cc1)NC(=O)[C@H]1NC(=O)[C@H](CCCCNC(C)=O)NC(=O)[C@H](Cc2c[nH]c3c(C)cccc23)NC(=O)[C@H]([C@@H](C)O)NC(=O)[C@H](CC(N)=O)NC(=O)[C@@H](NC(C)=O)C(C)(C)SSC1(C)C)C(=O)N[C@@H](CC(N)=O)C(=O)N[C@H](CC(C)C)C(N)=O` [compound 361], the half-life at 20 μM in data set [4], in data set [1] and in data set [3] was above 24 h throughout. In addition, the “SIF t½” value in data set [5] was 24 h.
